According to paper PMC5458257, “Identification of JL1037 as a novel, specific, reversible lysine-specific demethylase 1 inhibitor that induce apoptosis and autophagy of AML cells” (Oncotarget, 2017):

Tests used:
Format in all cases: biochemical
[1] = biological target: T1, Lysine-specific demethylase 1 (LSD1) (Homo sapiens, UniProt O60341); test: LSD1 Fluorimetric Drug Discovery kit (Enzo BML-AK544), HRP-coupled, H3K4me2 substrate
T1 construct: gene KDM1A

[2] = biological target: T2, MAO-A (Homo sapiens, UniProt P21397); test: MAO-Glo luminescent enzyme assay (Promega V1401), selectivity test
T2 construct: gene MAOA
T2 sequence (P21397 1-527): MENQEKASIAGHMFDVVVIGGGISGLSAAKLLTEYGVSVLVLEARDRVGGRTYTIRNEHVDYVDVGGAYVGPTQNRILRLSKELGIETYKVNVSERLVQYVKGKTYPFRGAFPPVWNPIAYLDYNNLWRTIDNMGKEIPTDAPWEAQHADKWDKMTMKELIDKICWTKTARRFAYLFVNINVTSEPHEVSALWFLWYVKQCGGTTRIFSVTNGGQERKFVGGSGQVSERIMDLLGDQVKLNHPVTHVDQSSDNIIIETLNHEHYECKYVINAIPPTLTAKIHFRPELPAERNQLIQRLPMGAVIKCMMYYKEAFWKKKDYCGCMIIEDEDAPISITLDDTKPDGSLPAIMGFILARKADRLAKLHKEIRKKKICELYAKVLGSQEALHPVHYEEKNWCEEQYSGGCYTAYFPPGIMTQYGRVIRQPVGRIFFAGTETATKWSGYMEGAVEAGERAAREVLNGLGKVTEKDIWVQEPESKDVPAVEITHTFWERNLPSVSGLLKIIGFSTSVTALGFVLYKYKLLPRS
Source text: MAO-Glo luminescent enzyme assay (Promega V1401), selectivity test on MAO-A | JL1037 enzymatic inhibitory activity against LSD1, MAO-A and MAO-B.

[3] = biological target: T3, MAO-B (Homo sapiens, UniProt P27338); test: as above
T3 construct: gene MAOB
T3 sequence (P27338 2-520): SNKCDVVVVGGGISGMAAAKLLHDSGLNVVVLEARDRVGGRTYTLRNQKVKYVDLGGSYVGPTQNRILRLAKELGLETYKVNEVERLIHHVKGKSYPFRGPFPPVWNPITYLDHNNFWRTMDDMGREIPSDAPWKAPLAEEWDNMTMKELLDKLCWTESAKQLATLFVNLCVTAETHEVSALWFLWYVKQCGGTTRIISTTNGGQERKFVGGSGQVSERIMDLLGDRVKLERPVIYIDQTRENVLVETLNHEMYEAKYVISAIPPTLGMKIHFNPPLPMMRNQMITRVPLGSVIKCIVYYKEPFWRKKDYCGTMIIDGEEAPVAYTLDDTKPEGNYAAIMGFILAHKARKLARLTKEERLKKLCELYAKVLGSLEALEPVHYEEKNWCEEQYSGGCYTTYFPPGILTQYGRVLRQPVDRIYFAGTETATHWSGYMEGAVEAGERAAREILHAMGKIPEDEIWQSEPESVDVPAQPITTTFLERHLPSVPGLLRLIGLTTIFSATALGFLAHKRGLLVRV
Source text: MAO-Glo luminescent enzyme assay (Promega V1401), selectivity test on MAO-B | JL1037 enzymatic inhibitory activity against LSD1, MAO-A and MAO-B.

IC50 [1]: 110 nM
IC50 [2]: 1920 nM
IC50 [3]: 1770 nM
Substance: JL1037
